# Results taken from US20050208496A1, “Methods of testing for bronchial asthma or chronic obstructive pulmonary disease” (Genox Research, Inc., priority 2002, published 2005).
# Test system: respiratory epithelial cells
substance,measurement,setting,value
"IL-13: human IL-13 (Peprotech, Inc.) added to the medium at 50 ng/mL to stimulate respiratory epithelial cells",DPP4 (34823_at) expression fold change upon IL-13 stimulation,"lot 2, Day 7, AI method",10 fold
same,DPYD (38220_at) expression fold change upon IL-13 stimulation,"lot 2, Day 7, AI method",2.1 fold
same,FADS3 (43394_s_at) expression fold change,"lot 2, Day 7, AI method",9.8 fold
same,FLJ10261 (43366_at) expression fold change,"lot 2, Day 7, AI method",7.9 fold
same,FLJ10261 (43963_at) expression fold change,"lot 2, Day 7, AI method",6.2 fold
same,FLJ14281 (50209_at) expression fold change,"lot 2, Day 7, AI method",2 fold
same,FLJ22332 (56959_at) expression fold change,"lot 2, Day 7, AI method",3.6 fold
same,FLJ22693 (53777_at) expression fold change,"lot 2, Day 7, AI method",1.6 fold
same,"G1P3 (1358_s_at) expression, fold change upon IL-13 stimulation","lot 2, Day 7, AI method",10.9 fold
same,H11 (56474_at) expression fold change,"lot 2, Day 7, AI method",2.1 fold
same,HDAC9 (37483_at) expression fold change upon IL-13 stimulation,"lot 2, Day 7, AI method",26.1 fold
same,"HLA-F (37420_i_at) expression, fold change upon IL-13 stimulation","lot 2, Day 7, AI method",2.8 fold
same,"HLA-F (37421_f_at) expression, fold change upon IL-13 stimulation","lot 2, Day 7, AI method",2.2 fold
same,HLA-F (49203_f_at) expression fold change,"lot 2, Day 7, AI method",2.8 fold
same,"HLALS (34427_g_at) expression, fold change upon IL-13 stimulation","lot 2, Day 7, AI method",2 fold
same,HS3ST1 (41556_s_at) expression fold change upon IL-13 stimulation,"lot 2, Day 7, AI method",2.5 fold
same,HSD17B2 (38178_at) expression fold change upon IL-13 stimulation,"lot 2, Day 7, AI method",3.5 fold
same,HSPA5 (47634_at) expression fold change,"lot 2, Day 7, AI method",2.6 fold
same,"HUMRTVLH3 (34702_f_at) expression, fold change upon IL-13 stimulation","lot 2, Day 7, AI method",3.1 fold
same,"Human hbc647 mRNA sequence (34759_at) expression, fold change upon IL-13 stimulation","lot 2, Day 7, AI method",2.9 fold
same,ICAMt (32640_at) expression fold change upon IL-13 stimulation,"lot 2, Day 7, AI method",4.1 fold
same,"IFI27 (425_at) expression, fold change upon IL-13 stimulation","lot 2, Day 7, AI method",4.7 fold
same,IFI27 (48864_at) expression fold change,"lot 2, Day 7, AI method",3.3 fold
same,"IFI30 (39728_at) expression, fold change upon IL-13 stimulation","lot 2, Day 7, AI method",2.3 fold
same,"IFIT1 (915_at) expression, fold change upon IL-13 stimulation","lot 2, Day 7, AI method",7.7 fold
same,"IFIT4 (38584_at) expression, fold change upon IL-13 stimulation","lot 2, Day 7, AI method",3.6 fold
same,IL13RA2 (1016_s_at) expression fold change upon IL-13 stimulation,"lot 2, Day 7, AI method",36.5 fold
same,IRF7 (36412_s_at) expression fold change,"lot 2, Day 7, AI method",3.6 fold
same,IRLB (32961_at) expression fold change,"lot 2, Day 7, AI method",2 fold
same,"ISG15 (1107_s_at) expression, fold change upon IL-13 stimulation","lot 2, Day 7, AI method",4.3 fold
same,"ISG15 (38432_at) expression, fold change upon IL-13 stimulation","lot 2, Day 7, AI method",6.9 fold
same,"KIAA0469 (37230_at) expression, fold change upon IL-13 stimulation","lot 2, Day 7, AI method",3 fold
same,"KIAA0537 (33787_at) expression, fold change upon IL-13 stimulation","lot 2, Day 7, AI method",4.8 fold
same,"KIAA1199 (36070_at) expression, fold change upon IL-13 stimulation","lot 2, Day 7, AI method",3.4 fold
same,KIAA1268 (57050_at) expression fold change,"lot 2, Day 7, AI method",1.7 fold
same,KIAAI268 (59516_at) expression fold change,"lot 2, Day 7, AI method",5.9 fold
same,KRT16 (601_s_at) expression fold change,"lot 2, Day 7, AI method",2 fold
same,"LAMP3 (37168_at) expression, fold change upon IL-13 stimulation","lot 2, Day 7, AI method",3 fold
same,"LOC64116 (40456_at) expression, fold change upon IL-13 stimulation","lot 2, Day 7, AI method",3 fold
same,"LRPAP1 (36194_at) expression, fold change upon IL-13 stimulation","lot 2, Day 7, AI method",2.2 fold
same,MAT2A (32571_at) expression fold change upon IL-13 stimulation,"lot 2, Day 7, AI method",2.9 fold
same,MDA5 (51920_at) expression fold change,"lot 2, Day 7, AI method",2.8 fold
same,MED6 (35432_at) expression fold change,"lot 2, Day 7, AI method",2 fold
same,"MET (1609_g_at) expression, fold change upon IL-13 stimulation","lot 2, Day 7, AI method",3.4 fold
same,"MET (1812_s_at) expression, fold change upon IL-13 stimulation","lot 2, Day 7, AI method",5.8 fold
same,"MET (35684_at) expression, fold change upon IL-13 stimulation","lot 2, Day 7, AI method",2.4 fold
same,MFHAS1 (50388_at) expression fold change,"lot 2, Day 7, AI method",2.4 fold
same,"MICB (35937_at) expression, fold change upon IL-13 stimulation","lot 2, Day 7, AI method",5.6 fold
same,"MKP-L (38272_at) expression, fold change upon IL-13 stimulation","lot 2, Day 7, AI method",5.1 fold
same,"MMP7 (668_s_at) expression, fold change upon IL-13 stimulation","lot 2, Day 7, AI method",2 fold
same,"MP1 (34839_at) expression, fold change upon IL-13 stimulation","lot 2, Day 7, AI method",2.4 fold
same,MXI (37014_at) expression fold change,"lot 2, Day 7, AI method",4.2 fold
same,NCF2 (41038_at) expression fold change,"lot 2, Day 7, AI method",4.2 fold
same,NFIL3 (37544_at) expression fold change,"lot 2, Day 7, AI method",2.7 fold
same,"NTRK1 (36805_s_at) expression, fold change upon IL-13 stimulation","lot 2, Day 7, AI method",4.9 fold
same,"OAF (39695_at) expression, fold change upon IL-13 stimulation","lot 2, Day 7, AI method",11.4 fold
same,OSF-2 (1451_s_at) expression fold change upon IL-13 stimulation,"lot 2, Day 7, AI method",46.4 fold
same,"PAK2 (1560_g_at) expression, fold change upon IL-13 stimulation","lot 2, Day 7, AI method",3.8 fold
same,"PITPNB (353_at) expression, fold change upon IL-13 stimulation","lot 2, Day 7, AI method",2 fold
same,"PITPNB (35017_f_at) expression, fold change upon IL-13 stimulation","lot 2, Day 7, AI method",2.4 fold
same,PMCH (32005_at) expression fold change,"lot 2, Day 7, AI method",4.3 fold
same,PSMB9 (38287_at) expression fold change upon IL-13 stimulation,"lot 2, Day 7, AI method",2.4 fold
same,PVRL2 (50320_g_at) expression fold change,"lot 2, Day 7, AI method",2.2 fold
same,RASGRP1 (33291_at) expression fold change,"lot 2, Day 7, AI method",4.2 fold
same,"SECTM1 (41045_at) expression, fold change upon IL-13 stimulation","lot 2, Day 7, AI method",4.6 fold
same,SERPINB2 (37185_at) expression fold change,"lot 2, Day 7, AI method",3.4 fold
same,SERPINB4 (1549_s_at) expression fold change,"lot 2, Day 7, AI method",15 fold
same,SIAT1 (41352_at) expression fold change upon IL-13 stimulation,"lot 2, Day 7, AI method",2.4 fold
same,"SLC26A4, pendrin (36376_at) expression fold change","lot 2, Day 7, AI method",58.2 fold
same,SPHK1 (51923_at) expression fold change,"lot 2, Day 7, AI method",2.5 fold
same,"SSI-1 (41592_at) expression, fold change upon IL-13 stimulation","lot 2, Day 7, AI method",11.3 fold
same,STAT1 (32859_at) expression fold change,"lot 2, Day 7, AI method",2.6 fold
same,STAT1 (33339_g_at) expression fold change,"lot 2, Day 7, AI method",2.5 fold
same,TGFB2 (1262_s_at) expression fold change upon IL-13 stimulation,"lot 2, Day 7, AI method",5.9 fold
same,TGM2 (38404_at) expression fold change upon IL-13 stimulation,"lot 2, Day 7, AI method",6 fold
same,"TSPAN-3 (38612_at) expression, fold change upon IL-13 stimulation","lot 2, Day 7, AI method",2.7 fold
same,TXNRD1 (39425_at) expression fold change upon IL-13 stimulation,"lot 2, Day 7, AI method",3.3 fold
same,"UFD1L (811_at) expression, fold change upon IL-13 stimulation","lot 2, Day 7, AI method",3.2 fold
same,W06879 (57696_at) expression fold change,"lot 2, Day 7, AI method",2 fold
same,ZNF263 (33288_i_at) expression fold change,"lot 2, Day 7, AI method",2 fold
same,"cig5 (38549_at) expression, fold change upon IL-13 stimulation","lot 2, Day 7, AI method",7.4 fold
same,AA045020 (44676_at) expression change,lot 2 Day 7 AI,−7.1
same,AA053401 (56234_r_at) expression change,lot 2 Day 7 AI,−3.2
same,AA059445 46293_at expression change,lot 2 Day 7 AI,−11.7
same,AA059458 (65626_at) expression change,lot 2 Day 7 AI,−4.6
same,AA079839 (69289_at) expression change,lot 2 Day 7 AI,−2.3
same,AA151265 (60939_i_at) expression change,lot 2 Day 7 AI,−2.7
same,AA151265 (60940_r_at) expression change,lot 2 Day 7 AI,−11.6
same,AA160156 (47578_at) expression change,lot 2 Day 7 AI,−3.1
same,AA203423 (65699_at) expression change,lot 2 Day 7 AI,−4.7
same,AA369887 (87539_i_at) expression change,lot 2 Day 7 AI,−2.6
same,AA398155 (48999_at) expression change,lot 2 Day 7 AI,−3.8
same,AA400080 (57282_at) expression change,lot 2 Day 7 AI,−4.1
same,AA422178 (53747_at) expression change,lot 2 Day 7 AI,−32.2
same,AA428312 (83988_at) expression change,lot 2 Day 7 AI,−5.4
same,AA442232 (59109_at) expression change,lot 2 Day 7 AI,−2.2
same,AA456099 (59567_at) expression change,lot 2 Day 7 AI,−3.5
same,AA772055 46104_at expression change,lot 2 Day 7 AI,−15.1
same,AA779895 59136_at expression change,lot 2 Day 7 AI,−6.6
same,ABCC5 1932_at expression change,lot 2 Day 7 AI,−5
same,AF052107 38262_at expression change,lot 2 Day 7 AI,−6.5
same,AI264299 (84903_f_at) expression change,lot 2 Day 7 AI,−5.9
same,AI432375 (49819_at) expression change,lot 2 Day 7 AI,−5
same,AI669212 55436_at expression change,lot 2 Day 7 AI,−6.9
same,AI740855 (83076_at) expression change,lot 2 Day 7 AI,−3.5
same,AI761647 40191_s_at expression change,lot 2 Day 7 AI,−4
